Paper PMC9016025, “Translational imaging of the fibroblast activation protein (FAP) using the new ligand [^68Ga]Ga-OncoFAP-DOTAGA” (European Journal of Nuclear Medicine and Molecular Imaging, 2021)

Legend:
Type in all cases: biochemical
human FAP = target: T1, human FAP (Homo sapiens, UniProt Q12884); test: In vitro fluorescence enzymatic inhibition assay, FAP; settings: for IC50: recombinant FAP, fluorogenic DPP substrate 1, n = 3
T1 construct: purchased BPS Bioscience 80100
T1 sequence (Q12884 1-760): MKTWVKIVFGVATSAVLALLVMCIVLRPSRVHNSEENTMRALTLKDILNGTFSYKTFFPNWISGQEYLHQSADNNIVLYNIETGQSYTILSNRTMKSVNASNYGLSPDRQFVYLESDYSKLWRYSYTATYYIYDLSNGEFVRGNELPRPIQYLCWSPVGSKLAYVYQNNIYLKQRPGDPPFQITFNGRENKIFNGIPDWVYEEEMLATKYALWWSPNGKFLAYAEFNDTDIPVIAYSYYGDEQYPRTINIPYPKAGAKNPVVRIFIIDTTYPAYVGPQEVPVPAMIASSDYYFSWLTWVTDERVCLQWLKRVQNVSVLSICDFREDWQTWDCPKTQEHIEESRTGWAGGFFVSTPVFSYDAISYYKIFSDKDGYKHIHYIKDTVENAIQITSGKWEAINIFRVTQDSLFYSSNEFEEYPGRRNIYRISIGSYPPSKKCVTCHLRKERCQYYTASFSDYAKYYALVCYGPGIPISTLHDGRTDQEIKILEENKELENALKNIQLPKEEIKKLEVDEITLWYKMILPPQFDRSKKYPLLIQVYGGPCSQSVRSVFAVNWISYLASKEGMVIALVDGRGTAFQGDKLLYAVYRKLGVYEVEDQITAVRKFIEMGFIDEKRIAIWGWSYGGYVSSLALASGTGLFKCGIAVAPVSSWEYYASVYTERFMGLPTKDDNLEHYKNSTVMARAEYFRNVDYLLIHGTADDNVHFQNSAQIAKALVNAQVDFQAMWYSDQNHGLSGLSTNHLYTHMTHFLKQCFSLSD
Method: (§1) Enzymatic inhibition activity and selectivity of OncoFAP derivatives was assessed by employing commercially available in vitro fluorescence assays for FAP, dipeptidyl peptidase 8 (DDP8), and prolyl oligo peptidase (POP) (BPS Bioscience, San Diego, CA, US). The fluorogenic substrate (Fluorogenic DPP substrate 1, Ala-Pro-AMC dipeptide, AMC: 7-amino-4-methylcumaryl) was incubated together with recombinant FAP, DDP, or POP/PREP in the presence or absence of test compounds. The enzymatic activity was correlated with the amount of cleaved fluorescent product measured by fluorescence spectroscopy. IC50 of each test compound was determined from the curves obtained by plotting fluorescence intensities at different concentrations of the inhibitor.
(§2) The synthetic fluorometric DPP substrate 1 (BPS Bioscience, San Diego, CA, USA) Catalog no. […] Reaction rates were measured from the initial 30 min of the reaction profile where product release was linear with time and plotted as a function of inhibitor dose.

[1] = target: T2, prolyl oligo peptidase (POP) (Homo sapiens, UniProt P48147); test: In vitro fluorescence enzymatic inhibition assay, POP; settings: for selectivity for FAP compared to POP: from IC50 values; for IC50: recombinant POP/PREP
T2 construct: purchased BPS Bioscience 80105
T2 sequence (P48147 1-710): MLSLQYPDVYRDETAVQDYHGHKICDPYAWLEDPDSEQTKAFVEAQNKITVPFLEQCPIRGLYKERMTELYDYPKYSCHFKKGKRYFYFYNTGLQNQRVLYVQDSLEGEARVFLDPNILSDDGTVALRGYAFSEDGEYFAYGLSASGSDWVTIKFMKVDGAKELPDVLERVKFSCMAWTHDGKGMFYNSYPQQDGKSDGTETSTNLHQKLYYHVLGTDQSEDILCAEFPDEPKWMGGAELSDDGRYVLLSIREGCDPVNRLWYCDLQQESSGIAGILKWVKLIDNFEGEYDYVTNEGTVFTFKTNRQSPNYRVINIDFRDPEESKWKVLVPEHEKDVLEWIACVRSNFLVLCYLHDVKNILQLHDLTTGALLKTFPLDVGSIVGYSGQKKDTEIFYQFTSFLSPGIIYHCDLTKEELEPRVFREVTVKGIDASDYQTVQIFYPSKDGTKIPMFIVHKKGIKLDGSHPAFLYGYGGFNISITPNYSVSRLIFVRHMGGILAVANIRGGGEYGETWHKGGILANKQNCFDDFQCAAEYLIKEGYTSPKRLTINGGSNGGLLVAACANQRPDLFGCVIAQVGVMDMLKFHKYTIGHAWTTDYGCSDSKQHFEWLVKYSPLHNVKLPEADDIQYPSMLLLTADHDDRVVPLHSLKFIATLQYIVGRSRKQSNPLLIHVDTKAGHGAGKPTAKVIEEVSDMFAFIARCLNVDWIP
Method: as §1, §2

[2] = target: T3, dipeptidyl peptidase 8 (DPP8) (Homo sapiens, UniProt Q6V1X1); test: In vitro fluorescence enzymatic inhibition assay, DPP8; settings: for IC50: recombinant DPP8, fluorogenic substrate
T3 construct: purchased BPS Bioscience 80080
T3 sequence (Q6V1X1 whole entry): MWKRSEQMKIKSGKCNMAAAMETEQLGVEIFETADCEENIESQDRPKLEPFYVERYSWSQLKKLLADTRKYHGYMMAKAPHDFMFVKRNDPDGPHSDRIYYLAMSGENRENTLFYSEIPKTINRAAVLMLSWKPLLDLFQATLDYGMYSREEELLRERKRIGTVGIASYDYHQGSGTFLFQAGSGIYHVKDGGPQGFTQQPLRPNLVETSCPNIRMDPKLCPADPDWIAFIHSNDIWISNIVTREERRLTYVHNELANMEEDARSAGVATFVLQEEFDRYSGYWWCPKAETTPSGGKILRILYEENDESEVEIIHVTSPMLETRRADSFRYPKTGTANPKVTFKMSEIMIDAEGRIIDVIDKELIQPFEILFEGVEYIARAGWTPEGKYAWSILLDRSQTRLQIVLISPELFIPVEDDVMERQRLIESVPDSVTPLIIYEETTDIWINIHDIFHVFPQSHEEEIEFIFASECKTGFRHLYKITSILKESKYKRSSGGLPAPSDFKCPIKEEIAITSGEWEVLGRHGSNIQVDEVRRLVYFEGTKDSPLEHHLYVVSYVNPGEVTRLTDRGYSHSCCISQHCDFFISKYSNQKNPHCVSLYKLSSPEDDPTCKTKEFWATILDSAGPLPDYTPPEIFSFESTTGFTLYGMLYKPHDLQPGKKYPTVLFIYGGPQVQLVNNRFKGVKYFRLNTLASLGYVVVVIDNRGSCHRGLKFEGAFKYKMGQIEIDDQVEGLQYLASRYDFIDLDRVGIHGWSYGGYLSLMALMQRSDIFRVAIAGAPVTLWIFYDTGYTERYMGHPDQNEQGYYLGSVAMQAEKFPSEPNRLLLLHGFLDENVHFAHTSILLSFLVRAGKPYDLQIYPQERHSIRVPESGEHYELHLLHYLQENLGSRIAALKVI
Method: as §1, §2

IC50 (human FAP)	selectivity for FAP compared to POP [1]	IC50 [1]	selectivity for FAP compared to DPP8 ([2]; from IC50 values)	IC50 [2]	superior FAP binding potency compared to ^natGa-FAPI-46 (human FAP; from IC50 values)	IC50 ([1]; fluorogenic substrate)	Substance
8.37 ± 0.71 nM	> 1000 fold	> 10000 nM	> 1000 fold	10200 ± 3000 nM	–	–	[^natGa]Ga-FAPI-46 [^natGa-FAPI-46]
0.51 ± 0.11 nM	96 fold	–	–	6870 ± 111 nM	ca. 16 fold	49.2 ± 6.3 nM	[^natGa]Ga-OncoFAP-DOTAGA [^natGa-OncoFAP]
